Measurements from patent US20220388969A1, “SUBSTITUTED 3,4-DIHYDROQ[…] THE TREATMENT AND PROPHYLAXIS OF HEPATITIS B VIRUS INFECTION” (priority 2019, published 2022).

These compounds were tested on HBeAg level in HepDES19 cells (surrogate marker for HBV cccDNA) (assay: Engineered HepDES19 primary screen assay (HBeAg as surrogate marker for cccDNA)). Settings: Hepatitis B virus, 120 h; HepDES19 cells, 5 days incubation with compound, HBeAg ELISA; read-out: IC50 (HBeAg level, HepDES19 primary screen assay).
Format: cell-based
Description: The assay was employed to screen for novel cccDNA inhibitors. HepDES19 is a cccDNA-producing cell line. In this cell line, HBeAg in the cell culture supernatant as surrogate marker, as HBeAg production depends on cccDNA level and activity. HepDES19 is an engineered cell line which contains a 1.1 unit length HBV genome, and pgRNA transcription from the transgene is controlled by Tetracycline (Tet). In the absence of Tet, pgRNA transcription will be induced, but HBV e antigen (HBeAg) could not be produced from this pgRNA due to very short leader sequence before the HBeAg start codon and the start codon is disrupted. Only after cccDNA is formed, the missing leader sequence and start codon mutation would be restored from the 3′-terminal redundancy of pgRNA, and then HBeAg could be synthesized. Therefore, HBeAg could be used as a surrogate marker for cccDNA (Zhou, T. et al., Antiviral Res.(2006), 72(2), 116-124; Guo, H. et al., J. Virol. (2007), 81(22), 12472-12484).
HepDES19 cells were seeded at 2×10^6 cells per T150 flask and cultured with the culture medium (Dulbecco's Modified Eagle Medium: Nutrient Mixture F-12 [DMEM-F12, Gibco Cat. 11320-82], 10% Fetal Bovine Serum [FBS, Clontech Cat. 631101], 0.1 mM Non-Essential Amino Acids Solution [NEAA, Gibco Cat. 11140-050], 50 μg/mL Penicillin-Streptomycin [PS, Invitrogen Cat. 15140-163], 500 μg/mL Geneticin [G418, Invitrogen Cat. 10131-027]) containing 3 μg/mL Tet (Sigma, Cat. 87128) for 5 days. Cells were then seeded at 4×10^6 cells per T150 in the same culture medium as described above in the absence of Tet for 8 days. Cells were then harvested and frozen at density of 2×10^6 cells per mL. For compound testing, the frozen cells were thawed and seeded into 96-well plates at a density of 6 ×10^4 cells per well. At 24hours after seeding, half log serial dilutions of compounds made with Dimethyl sulfoxide (DMSO, Sigma, Cat. D2650) were further diluted with the same culture medium as described above before they were added to the cells to reach desired final compound concentrations and 1% DMSO concentration. Plates were then incubated at 37° C. for another 5 days before measurement of HBeAg level and cell viability. Intracellular HBeAg level were measured with enzyme-linked immunosorbent assay (ELISA) kit (Shanghai Kehua Diagnostic Medical Products Co., Ltd). Cell viability was assessed using Cell Counting Kit-8 (DonJindo, Cat. CK04-20). IC50 values were derived from the dose-response curve using 4 parameter logistic curve fit method.
The compounds of the present invention were tested for their capacity to inhibit extracellular HBeAg level as described herein.

| SMILES | IC50 |
| --- | --- |
| O=C(O)C1NC(c2ccc(N3CCCC3)nc2)=Nc2c(Cl)cccc21 (stereo not drawn) [Example 10, 8-chloro-2-(6-pyrrolidin-1-yl-3-pyridyl)-3,4-dihydroquinazoline-4-carboxylic Acid] | 0.05 µM |
| CC1(C)NC(c2ccc(Br)cc2)=Nc2c(Cl)cccc21 [Example 34, 2-(4-bromophenyl)-8-chloro-4,4-dimethyl-3H-quinazoline hydrofluoride] | 5.78 µM |
| CC1NC(c2ccc(OCCO[C@H]3C[C@@H](C(=O)O)C3)cc2)=Nc2c(Cl)cccc21 (stereo partly drawn) [Example 21, cis-3-[2-[4-(8-chloro-4-methyl-3,4-dihydroquinazolin-2-yl)phenoxy]ethoxy]cyclobutanecarboxylic Acid] | 1.03 µM |
| CCOc1ccc(C2=Nc3c(Cl)cccc3C(C(=O)O)N2)cn1 (stereo not drawn) [Example 9, 8-chloro-2-(6-ethoxy-3-pyridyl)-3,4-dihydroquinazoline-4-carboxylic Acid] | 0.45 µM |
| CC1NC(c2ccc(OCCOCC(=O)O)cc2)=Nc2cc(C(F)(F)F)ccc21 (stereo not drawn) [Example 20, 2-[2-[4-[4-methyl-7-(trifluoromethyl)-3,4-dihydroquinazolin-2-yl]phenoxy]ethoxy]acetic Acid] | 2.01 µM |
| COc1ccc2c(c1)CCN(C1=Nc3c(Cl)cccc3C(C)N1)C2=O (stereo not drawn) [Example 29, 2-(8-chloro-4-methyl-3,4-dihydroquinazolin-2-yl)-6-methoxy-3,4-dihydroisoquinolin-1-one] | 0.027 µM |
| O=C(C1NC(c2ccc(Br)cc2)=Nc2cc(C(F)(F)F)ccc21)N1CCOCC1 (stereo not drawn) [Example 17, [2-(4-bromophenyl)-7-(trifluoromethyl)-3,4-dihydroquinazolin-4-yl]-morpholino-methanone] | 1.65 µM |
| CC1c2cccc(Cl)c2N=C(c2ccc(OCCOCC(=O)O)cc2)N1C (stereo not drawn) [Example 26, 2-[2-[4-(8-chloro-3,4-dimethyl-4H-quinazolin-2-yl)phenoxy]ethoxy]acetic acid] | 5.54 µM |
| CC1NC(n2cnc(Br)c2)=Nc2cc(C(F)(F)F)ccc21 (stereo not drawn) [Example 30, 2-(4-bromoimidazol-1-yl)-4-methyl-7-(trifluoromethyl)-3,4-dihydroquinazoline] | 0.778 µM |
| COc1ccc(C2=Nc3c(Cl)cccc3C(C(N)=O)N2)cc1 (stereo not drawn) [Example 14, 8-chloro-2-(4-methoxyphenyl)-3,4-dihydroquinazoline-4-carboxamide] | 2.47 µM |
| CC1c2ccc(C(F)(F)F)cc2N=C(c2cccc(Br)c2)N1C (stereo not drawn) [Example 24, 2-(3-bromophenyl)-3,4-dimethyl-7-(trifluoromethyl)-4H-quinazoline] | 2.1 µM |
| CC1NC(c2ccc(Br)cc2OCCOC2CC(C(=O)O)C2)=Nc2c(Cl)cccc21 (stereo not drawn) [Example 37, 3-[2-[5-bromo-2-(8-chloro-4-methyl-3,4-dihydroquinazolin-2-yl)phenoxy]ethoxy]cyclobutanecarboxylic Acid] | 1.97 µM |
| COc1ccc(C2=Nc3c(Cl)cccc3C(C(=O)O)N2)cn1 (stereo not drawn) [Example 8, 8-chloro-2-(6-methoxy-3-pyridyl)-3,4-dihydroquinazoline-4-carboxylic Acid] | 9.16 µM |
| Clc1cccc2c1N=C(c1ccc(Br)cc1)NC2C1CC1 (stereo not drawn) [Example 35, 2-(4-bromophenyl)-8-chloro-4-cyclopropyl-3,4-dihydroquinazoline] | 0.41 µM |
| NC(=O)C1NC(c2cccc(Br)c2)=Nc2cc(C(F)(F)F)ccc21 (stereo not drawn) [Example 15, 2-(3-bromophenyl)-7-(trifluoromethyl)-3,4-dihydroquinazoline-4-carboxamide] | 0.26 µM |
| CC1NC(c2ccc(OCCO)cc2)=Nc2c(Cl)cccc21 (stereo not drawn) [Example 28, 2-[4-(8-chloro-4-methyl-3,4-dihydroquinazolin-2-yl)phenoxy]ethanol] | 4.77 µM |
| OCCOc1ccc(C2=Nc3c(Cl)cccc3CN2)cc1 [Example 27, 2-[4-(8-chloro-3,4-dihydroquinazolin-2-yl)phenoxy]ethanol] | 11.6 µM |

Same assay, conditions: Hepatitis B virus, HepDES19, 120 h, read-out: IC50 (HBeAg level, HepDES19 primary screen assay)

| SMILES | IC50 |
| --- | --- |
| O=C(NCCCl)C1NC(c2ccc(Br)cc2)=Nc2c(Cl)cccc21 (stereo not drawn) [Example 18, 2-(4-bromophenyl)-8-chloro-N-(2-chloroethyl)-3,4-dihydroquinazoline-4-carboxamide] | 2.59 µM |
